ChEMBL document CHEMBL4334470, “Small molecule modulators targeting protein kinase CK1 and CK2” (Eur J Med Chem, 2019)

Columns and labels:
[1] = target: T1, Casein kinase II subunit alpha (Homo sapiens, UniProt P68400); assay: Inhibition of CK2alpha (unknown origin)
[2] = target: T1, Casein kinase II subunit alpha; assay: Inhibition of CK2alpha (unknown origin) using RRRADDSDDDDD as substrate in presence of [gamma33P]-ATP by autoradiography
[3] = target: Casein kinase I isoform alpha (Homo sapiens, UniProt P48729); assay: Inhibition of CK1alpha (unknown origin)
Casein kinase I isoform alpha, sequence (P48729 whole entry, canonical isoform): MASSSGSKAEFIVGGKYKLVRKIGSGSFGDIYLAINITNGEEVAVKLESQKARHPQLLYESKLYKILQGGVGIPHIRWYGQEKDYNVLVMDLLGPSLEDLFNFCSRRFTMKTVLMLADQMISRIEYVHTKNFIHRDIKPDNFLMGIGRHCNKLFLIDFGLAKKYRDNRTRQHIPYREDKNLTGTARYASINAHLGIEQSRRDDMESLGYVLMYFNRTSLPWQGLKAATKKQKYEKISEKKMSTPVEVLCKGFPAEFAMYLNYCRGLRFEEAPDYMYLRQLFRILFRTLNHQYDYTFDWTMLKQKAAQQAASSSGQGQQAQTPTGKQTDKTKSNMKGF

[4] = target: Casein kinase I delta/epsilon (Homo sapiens, UniProt P48730+P49674); assay: Inhibition of CK1delta/CK1epsilon (unknown origin); assay type: protein-complex assay
Casein kinase I delta/epsilon, sequence (P48730 whole entry): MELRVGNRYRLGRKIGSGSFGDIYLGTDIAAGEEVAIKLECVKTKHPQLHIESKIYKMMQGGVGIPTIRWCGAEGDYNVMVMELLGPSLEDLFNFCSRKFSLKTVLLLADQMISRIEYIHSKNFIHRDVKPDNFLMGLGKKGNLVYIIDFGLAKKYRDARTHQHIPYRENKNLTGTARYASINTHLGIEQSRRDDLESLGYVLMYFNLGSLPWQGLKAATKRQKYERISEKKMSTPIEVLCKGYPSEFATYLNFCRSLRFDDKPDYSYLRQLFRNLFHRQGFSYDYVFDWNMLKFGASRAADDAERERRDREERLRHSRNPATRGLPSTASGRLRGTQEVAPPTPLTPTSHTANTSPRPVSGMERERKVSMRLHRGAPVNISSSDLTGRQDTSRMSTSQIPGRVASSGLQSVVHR
Casein kinase I delta/epsilon, sequence (P49674 whole entry): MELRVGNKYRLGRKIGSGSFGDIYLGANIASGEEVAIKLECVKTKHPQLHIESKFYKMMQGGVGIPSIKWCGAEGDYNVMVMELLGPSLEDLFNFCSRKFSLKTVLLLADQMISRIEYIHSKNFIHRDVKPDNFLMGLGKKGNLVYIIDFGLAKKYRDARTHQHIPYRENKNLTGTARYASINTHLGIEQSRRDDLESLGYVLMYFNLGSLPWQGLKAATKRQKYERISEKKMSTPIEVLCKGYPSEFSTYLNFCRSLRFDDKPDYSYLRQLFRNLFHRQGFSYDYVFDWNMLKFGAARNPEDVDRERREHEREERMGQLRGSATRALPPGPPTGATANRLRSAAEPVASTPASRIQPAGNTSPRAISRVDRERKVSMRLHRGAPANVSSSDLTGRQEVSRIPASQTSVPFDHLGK

Casein kinase I = assay: Inhibition of CK1 (unknown origin); assay type: protein assay, Homo sapiens

T1 sequence (P68400 whole entry): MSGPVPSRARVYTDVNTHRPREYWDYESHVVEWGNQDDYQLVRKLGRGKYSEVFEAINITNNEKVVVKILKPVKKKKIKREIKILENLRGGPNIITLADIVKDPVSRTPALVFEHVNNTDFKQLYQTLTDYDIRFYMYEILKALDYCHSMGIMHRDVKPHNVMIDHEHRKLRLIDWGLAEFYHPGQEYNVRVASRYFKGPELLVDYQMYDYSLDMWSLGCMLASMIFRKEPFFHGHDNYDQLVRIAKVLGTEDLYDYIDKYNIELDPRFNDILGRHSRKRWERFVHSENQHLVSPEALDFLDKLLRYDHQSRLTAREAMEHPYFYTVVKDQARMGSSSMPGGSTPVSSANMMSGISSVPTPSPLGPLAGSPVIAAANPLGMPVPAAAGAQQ

SMILES	Ki [1] [nM]	also measured
O=C1c2c(O)cccc2C(=O)c2c([N+](=O)[O-])ccc(O)c21	800	
O=c1oc2c(Br)c(O)ccc2c2ccc(O)cc12	7	
O=c1oc2c(O)c(O)cc3c(=O)oc4c(O)c(O)cc1c4c23 [ELLAGIC ACID]	20	
Cc1c(Br)c(=O)oc2c(Br)c(O)ccc12	60	
CCCCCCCCCCCC1=C(O)C(=O)C2=C(OC(N)=C(C#N)C2[N+](=O)[O-])C1=O (stereo unspecified)	220	
O=C(O)/C=C/c1cc(Br)c(Br)c(Br)c1Br		Ki [2]: 77 nM
COc1cc(OC)c(/C=C2\C(=O)Nc3ccccc32)c(OC)c1		IC50 [3]: 16000 nM; IC50 [4]: 1000 nM
O=c1c(O)c(-c2ccc(O)c(O)c2)oc2cc(O)ccc12 [FISETIN]	350	
O=c1c2c(O)cccc2oc2c([N+](=O)[O-])ccc(O)c12	780	
NCCNS(=O)(=O)c1ccc(Cl)c2ccncc12		IC50 (Casein kinase I): 9500 nM
